Results taken from patent publication US4161595A, “Levulinic acid salt” (Bristol-Myers Company, priority 1978, dated 1979).
Values after ≈ are worked out from the molar mass of the structure shown. Counter-ions that a name gives are not always drawn.

Experiments:
[1] = In situ solubility of acid addition salts of BL-5111 in water; assay type: physicochemical; conditions: for Solubility 50° C. / Solubility 25° C.: 10 mg. BL-5111 free base in 0.3 ml. water with excess of the acid; for Solubility 25° C.: room temperature (about 25° C.)
[2] = Plasma levels in dogs after oral administration by gavage; assay type: in vivo; conditions: equivalent to 10 mg. BL-5111 free base, fasted beagle dogs
Experimental: With respect to oral administration, the BL-5111 levulinate provides improved absorption compared to the hydrochloride salt as illustrated by enhanced plasma levels in dogs. Thus, BL-5111 levulinate (equivalent to 10 mg. of BL-5111 free base) was orally administered by gavage as a solution in 5 ml. of water followed by 20 ml. of water to beagle dogs which had been fasted 12 to 15 hours. The BL-5111 hydrochloride (equivalent to 10 mg. of the BL-5111 free base) was likewise administered with the exception that a suspension was employed due to tendency of the hydrochloride to dissolve at a rate appreciably slower than the levulinate. […] Moreover, maximum plasma level following administration was approximately three-fold greater for the levulinate than the hydrochloride while the extent of absorption of BL-5111 levulinate (determined by comparison of the area under plasma concentration-time curves taken over a period of 24 hr.) was more than double that of BL-5111 hydrochloride.

[3] = Comparative quantitative solubility study in water and methylene chloride; assay type: physicochemical; conditions: 25° C.; for Solubility in Methylene Chloride: measure of lipid solubility
Text: In comparison to the hydrochloride salt of BL-5111, the 1:1.3 levulinate salt form has substantially greater water and lipid solubility. TABLE 3 below sets forth results of a comparative quantitative study of the BL-5111 hydrochloride and the 1:1.3 levulinate salt in water and methylene chloride. Solubility in methylene chloride is a measure of lipid solubility which plays an important role in any distribution in the body.

[4] = Comparative water stability of 1:1 and 1:1.3 levulinate salts; assay type: physicochemical
[5] = Comparative water solubility of 1:1 and 1:1.3 levulinate salts; assay type: physicochemical

Row | Structure (SMILES) | Solubility 50° C. [1] | Solubility 25° C. [1] | also measured
1 | COc1cc2nc(N3CCN(C(=O)c4nnc(SC)o4)CC3)nc(N)c2cc1OC [hydrochloride] |  |  | Solubility 50° C. ([1]; listed as hydrochloric): - (insoluble (-)); Solubility 25° C. ([1]; listed as hydrochloric): - (insoluble (-)); Time at which maximum plasma levels reached ([2]; levulinate as solution, hydrochloride as suspension, listed as BL-5111 hydrochloride): 2 h; Solubility in Water [3]: 4.42 mg/mL; Solubility in Methylene Chloride [3]: < 1 mg/mL
2 | COc1cc2nc(N3CCN(C(=O)c4nnc(SC)o4)CC3)nc(N)c2cc1OC [1:1, levulinic acid salt of 4-amino-6,7-dimethoxy-2-[4-(5-methylthio-1,3,4-oxadiazole-2-carbonyl)-piperazin-1-yl]quinazoline] |  |  | Solubility and stability relative to the 1:1.3 levulinate ([4]; water, Table 2 data): relatively less soluble and stable; Solubility ([5]; 2.5 mg./ml., at 50° C.): soluble; Solubility ([5]; 10 mg./ml., at 50° C.): soluble; Solubility ([5]; 50 mg./ml., at 80° C.): insoluble
3 | COc1cc2nc(N3CCN(C(=O)c4nnc(SC)o4)CC3)nc(N)c2cc1OC [acetic] | + (soluble (+)) | + (soluble (+)) | Solubility ([1]; room temperature, 10 mg./0.3 ml. water, read-out: Solubility sufficient to provide a solution): ≥ 33 mg/mL
4 | COc1cc2nc(N3CCN(C(=O)c4nnc(SC)o4)CC3)nc(N)c2cc1OC [1:1.3 levulinate, 4-AMINO-6,7-DIMETHOXY-2-[4-(5-METHYLTHIO-1,3,4-OXADIAZOLE-2-CARBONYL)-PIPERAZIN-1-YL]QUINAZOLINE LEVULINATE] |  |  | Maximum plasma level relative to the hydrochloride [2]: approximately three-fold; Extent of absorption (area under plasma concentration-time curves) relative to BL-5111 hydrochloride ([2]; over 24 hr.): more than double; Solubility in Water [3]: 38.0 mg/mL (≈ 88.1 mM); Water solubility, times that of the hydrochloride salt [3]: about 8.6 times; Solubility in Methylene Chloride [3]: > 100 mg/mL; Stability of aqueous solution ([4]; room temperature): stable; Stability ([4]; water, 10 mg./ml., room temperature, listed as 1:1.3): stable; Stability ([4]; water, 50 mg./ml., room temperature): stable; Solubility ([5]; 10 mg./ml., room temperature): soluble; Solubility ([5]; 50 mg./ml., at 50° C.): soluble
5 | COc1cc2nc(N3CCN(C(=O)c4nnc(SC)o4)CC3)nc(N)c2cc1OC [fumaric] | - (insoluble (-)) | - (insoluble (-)) | 
6 | COc1cc2nc(N3CCN(C(=O)c4nnc(SC)o4)CC3)nc(N)c2cc1OC [phosphoric] | - (insoluble (-)) | - (insoluble (-)) | 
7 | COc1cc2nc(N3CCN(C(=O)c4nnc(SC)o4)CC3)nc(N)c2cc1OC [formic] | + (soluble (+)) | ± (questionable (±)) | 
8 | COc1cc2nc(N3CCN(C(=O)c4nnc(SC)o4)CC3)nc(N)c2cc1OC [isethionic] | - (insoluble (-)) | - (insoluble (-)) | 
9 | COc1cc2nc(N3CCN(C(=O)c4nnc(SC)o4)CC3)nc(N)c2cc1OC [hydrobromic] | - (insoluble (-)) | - (insoluble (-)) | 
10 | COc1cc2nc(N3CCN(C(=O)c4nnc(SC)o4)CC3)nc(N)c2cc1OC [sulfuric] | - (insoluble (-)) | - (insoluble (-)) | 
11 | COc1cc2nc(N3CCN(C(=O)c4nnc(SC)o4)CC3)nc(N)c2cc1OC [methanesulfonic] | - (insoluble (-)) | - (insoluble (-)) | 
12 | COc1cc2nc(N3CCN(C(=O)c4nnc(SC)o4)CC3)nc(N)c2cc1OC [nitric] | - (insoluble (-)) | - (insoluble (-)) | 
13 | COc1cc2nc(N3CCN(C(=O)c4nnc(SC)o4)CC3)nc(N)c2cc1OC [succinic] | + (soluble (+)) | - (insoluble (-)) | 
